Experimental data from ChEMBL document CHEMBL1201862, “PubChem BioAssay data set” (2004).
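48-hour exposure; five concentrations; linearly interpolated endpoints. GI50 = concentration required for 50% inhibition of growth.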 Active and inactive are the calls of the source. Cut-off read from the data, not from the text of the source: active = GI50 up to about 1.1 µM and inactive = higher.

How the values were obtained:
Assay in all cases: NCI-60 cell line screen, 48 h
NCI-H522 = system: NCI-H522
SK-MEL-28 = system: SK-MEL-28
RXF 393 = system: RXF 393
OVCAR-5 = system: OVCAR-5
CCRF-CEM = system: CCRF-CEM
SR = system: SR
HOP-92 = system: HOP-92
SN12C = system: SN12C
KM12 = system: KM12
SF-539 = system: SF-539
HL-60 = system: HL-60
HCT-15 = system: HCT-15
U-251 = system: U-251
HCT-116 = system: HCT-116
TK-10 = system: TK-10
OVCAR-3 = system: OVCAR-3
MOLT-4 = system: MOLT-4
MDA-MB-231 = system: MDA-MB-231
PC-3 = system: PC-3
SNB-19 = system: SNB-19

| Structure (SMILES) | GI50 (NCI-H522) | GI50 (SK-MEL-28) | GI50 (RXF 393) | GI50 (OVCAR-5) | GI50 (CCRF-CEM) | GI50 (SR) | GI50 (HOP-92) | GI50 (SN12C) | GI50 (KM12) | GI50 (SF-539) | GI50 (HL-60) | GI50 (HCT-15) | GI50 (U-251) | GI50 (HCT-116) | GI50 (TK-10) | GI50 (OVCAR-3) | GI50 (MOLT-4) | GI50 (MDA-MB-231) | GI50 (PC-3) | GI50 (SNB-19) |
| --- | --- | --- | --- | --- | --- | --- | --- | --- | --- | --- | --- | --- | --- | --- | --- | --- | --- | --- | --- | --- |
| Cc1ccc(C(=O)O/N=C2/CCC/C2=C\c2ccccc2)cc1 | > 100 µM (inactive) | > 100 µM (inactive) | > 100 µM (inactive) | > 100 µM (inactive) | > 100 µM (inactive) | > 100 µM (inactive) | > 100 µM (inactive) | > 100 µM (inactive) | > 100 µM (inactive) | > 100 µM (inactive) | > 100 µM (inactive) | > 100 µM | > 100 µM (inactive) | > 100 µM (inactive) | > 100 µM (inactive) | > 100 µM (inactive) | > 100 µM (inactive) | – | – | – |
| CCOC(=O)c1c(OCC)[nH]c(=O)c(C(c2cccs2)c2c(O)c(C(=O)OCC)c(OCC)[nH]c2=O)c1O | 13.8 µM (inactive) | 13.1 µM (inactive) | 1.7 µM (inactive) | 26.5 µM (inactive) | 14.2 µM (inactive) | – | 9.42 µM (inactive) | 15.4 µM (inactive) | 17.9 µM (inactive) | 6.4 µM (inactive) | 13.7 µM (inactive) | 14.5 µM | 12.4 µM (inactive) | 17.5 µM (inactive) | 25.4 µM (inactive) | 11.6 µM (inactive) | 6.47 µM (inactive) | 11.1 µM (inactive) | 18.2 µM (inactive) | 11.4 µM (inactive) |
| CC(=O)OCC1OC(n2c(N)c(C#N)c(C)c(C#N)c2=S)C(OC(C)=O)C(OC(C)=O)C1OC(C)=O (stereo not given) | > 100 µM (inactive) | > 100 µM (inactive) | > 100 µM (inactive) | > 100 µM (inactive) | > 100 µM (inactive) | – | – | > 100 µM (inactive) | > 100 µM (inactive) | > 100 µM (inactive) | – | > 100 µM | > 100 µM (inactive) | > 100 µM (inactive) | > 100 µM (inactive) | > 100 µM (inactive) | > 100 µM (inactive) | – | > 100 µM (inactive) | > 100 µM (inactive) |
| CC(C)N1C=[N+](C(C)C)CC1 | > 100 µM (inactive) | > 100 µM (inactive) | > 100 µM (inactive) | > 100 µM (inactive) | > 100 µM (inactive) | – | > 100 µM (inactive) | > 100 µM (inactive) | > 100 µM (inactive) | > 100 µM (inactive) | – | > 100 µM | > 100 µM (inactive) | > 100 µM (inactive) | > 100 µM (inactive) | > 100 µM (inactive) | – | > 100 µM (inactive) | > 100 µM (inactive) | > 100 µM (inactive) |
| C=C1C(=O)O[C@@H]2C[C@@]3(C)CC(=O)C=C(C)[C@@H]3C[C@H]12 | 4.46 µM (inactive) | 5.73 µM (inactive) | 3.94 µM (inactive) | 14.7 µM (inactive) | 5.83 µM (inactive) | – | 16.3 µM (inactive) | 11.1 µM (inactive) | 18.6 µM (inactive) | 13.3 µM (inactive) | 1.71 µM (inactive) | 4.03 µM | 15.5 µM (inactive) | 5.32 µM (inactive) | 10.2 µM (inactive) | 6.15 µM (inactive) | 3.04 µM (inactive) | 16.9 µM (inactive) | 18.2 µM (inactive) | 17.3 µM (inactive) |
| CCCCCCCC(=O)OC(CBr)COC(=O)C(C)(C)C (stereo not given) | > 100 µM (inactive) | > 100 µM (inactive) | > 100 µM (inactive) | > 100 µM (inactive) | 33 µM (inactive) | 22.1 µM (inactive) | > 95.5 µM (inactive) | > 100 µM (inactive) | > 100 µM (inactive) | > 10 µM (inactive) | 38 µM (inactive) | > 100 µM | > 100 µM (inactive) | > 63.4 µM (inactive) | > 100 µM (inactive) | > 68.2 µM (inactive) | 28.9 µM (inactive) | – | – | > 100 µM (inactive) |
| OCC[N+]12CCCN1CCC2 | > 100 µM (inactive) | > 100 µM (inactive) | > 100 µM (inactive) | > 100 µM (inactive) | > 100 µM (inactive) | > 100 µM (inactive) | > 100 µM (inactive) | > 100 µM (inactive) | > 100 µM (inactive) | > 100 µM (inactive) | > 100 µM (inactive) | > 100 µM | > 100 µM (inactive) | > 100 µM (inactive) | > 100 µM (inactive) | > 100 µM (inactive) | > 100 µM (inactive) | – | – | > 100 µM (inactive) |
| O=C(CSCC(=O)N/N=C\c1ccccc1F)N/N=C\c1ccccc1F | 64.6 µM (inactive) | > 100 µM (inactive) | > 100 µM (inactive) | – | 90.4 µM (inactive) | – | > 100 µM (inactive) | > 100 µM (inactive) | 92.9 µM (inactive) | > 100 µM (inactive) | > 100 µM (inactive) | 63.2 µM | 67.3 µM (inactive) | > 100 µM (inactive) | > 100 µM (inactive) | 27 µM (inactive) | 63.2 µM (inactive) | > 100 µM (inactive) | – | > 100 µM (inactive) |
| O=C1C=C(Br)C(=O)C(Br)=C1 | 67.5 µM (inactive) | > 100 µM (inactive) | > 100 µM (inactive) | > 100 µM (inactive) | > 50.1 µM (inactive) | 31.8 µM (inactive) | > 100 µM (inactive) | > 59.6 µM (inactive) | > 100 µM (inactive) | > 100 µM (inactive) | 20.3 µM (inactive) | > 79.8 µM | > 100 µM (inactive) | > 84.9 µM (inactive) | > 100 µM (inactive) | > 62.2 µM (inactive) | 33.7 µM (inactive) | – | – | > 100 µM (inactive) |
| CCOC(=O)c1[nH]c(COC(C)=O)c2c1CCCCCCCCCC2 | > 100 µM (inactive) | – | > 100 µM (inactive) | > 100 µM (inactive) | > 100 µM (inactive) | > 100 µM (inactive) | > 100 µM (inactive) | > 100 µM (inactive) | > 100 µM (inactive) | > 100 µM (inactive) | > 100 µM (inactive) | > 100 µM | > 100 µM (inactive) | > 100 µM (inactive) | > 100 µM (inactive) | > 100 µM (inactive) | > 100 µM (inactive) | – | – | > 100 µM (inactive) |
| COc1cc2c(cc1C1=NC(C)(C)CO1)OCO2 | > 100 µM (inactive) | > 100 µM (inactive) | > 100 µM (inactive) | – | > 100 µM (inactive) | > 100 µM (inactive) | > 100 µM (inactive) | > 100 µM (inactive) | > 100 µM (inactive) | > 100 µM (inactive) | > 100 µM (inactive) | > 100 µM | > 100 µM (inactive) | > 100 µM (inactive) | > 100 µM (inactive) | > 100 µM (inactive) | > 100 µM (inactive) | – | – | > 100 µM (inactive) |
| C=CCN1C(=O)N/C(=C\c2ccc(Cl)cc2)C1=O | 87.7 µM (inactive) | > 100 µM (inactive) | > 100 µM (inactive) | > 100 µM (inactive) | > 100 µM (inactive) | – | > 100 µM (inactive) | > 100 µM (inactive) | > 100 µM (inactive) | > 100 µM (inactive) | > 100 µM (inactive) | > 100 µM | > 100 µM (inactive) | > 100 µM (inactive) | > 100 µM (inactive) | > 100 µM (inactive) | > 100 µM (inactive) | > 100 µM (inactive) | – | > 100 µM (inactive) |
| CSc1nc(NC2OCC(OC(C)=O)C(OC(C)=O)C2OC(C)=O)c(/N=C\C=N\c2c(NC3OCC(OC(C)=O)C(OC(C)=O)C3OC(C)=O)nc(SC)n(C)c2=O)c(=O)n1C (stereo not given) | > 100 µM (inactive) | > 100 µM (inactive) | > 100 µM (inactive) | > 100 µM (inactive) | – | > 100 µM (inactive) | > 100 µM (inactive) | > 100 µM (inactive) | > 100 µM (inactive) | > 100 µM (inactive) | > 100 µM (inactive) | > 100 µM | > 100 µM (inactive) | > 100 µM (inactive) | > 100 µM (inactive) | > 100 µM (inactive) | – | – | – | 38.4 µM (inactive) |
| CCCCC(Sc1cc(Cl)c(C)cc1S(=O)(=O)Nc1nc(N)n[nH]1)C(=O)OC (stereo not given) | > 10 µM (inactive) | > 10 µM (inactive) | > 10 µM (inactive) | > 10 µM (inactive) | > 10 µM (inactive) | – | – | > 10 µM (inactive) | > 10 µM (inactive) | > 10 µM (inactive) | > 10 µM (inactive) | > 10 µM | > 10 µM (inactive) | > 10 µM (inactive) | > 10 µM (inactive) | > 10 µM (inactive) | > 10 µM (inactive) | > 10 µM (inactive) | > 10 µM (inactive) | > 10 µM (inactive) |
| Cc1ccc(C(=O)Nc2ccc(CP(=O)(O)O)cc2)cc1NC(=O)Nc1cc(C(=O)Nc2ccc(CP(=O)(O)O)cc2)ccc1C | > 100 µM (inactive) | > 100 µM (inactive) | > 100 µM (inactive) | > 100 µM (inactive) | > 100 µM (inactive) | – | – | > 100 µM (inactive) | > 100 µM (inactive) | > 100 µM (inactive) | > 100 µM (inactive) | > 100 µM | > 100 µM (inactive) | > 100 µM (inactive) | > 100 µM (inactive) | > 100 µM (inactive) | > 100 µM (inactive) | > 100 µM (inactive) | > 100 µM (inactive) | – |
| COc1cc(/C=C\c2ccccc2)cc(OC)c1OC | 2.67 µM (inactive) | 6.28 µM (inactive) | 1.84 µM (inactive) | 10.3 µM (inactive) | 2.99 µM (inactive) | 3.71 µM (inactive) | 3.53 µM (inactive) | 5 µM (inactive) | 4.04 µM (inactive) | 2.56 µM (inactive) | 1.75 µM (inactive) | 2.6 µM | 4.15 µM (inactive) | 4.78 µM (inactive) | 3.94 µM (inactive) | 2.29 µM (inactive) | 3.7 µM (inactive) | – | – | 6.08 µM (inactive) |
